Data published in US11261435B2, “Chemical-inducible genome engineering technology” (AGENCY FOR SCIENCE, TECHNOLOGY AND RESEARCH, priority 2015, dated 2022).

Columns and labels:
EMX1 locus [1] = assay: Surveyor cleavage assay at the EMX1 locus in HEK293 cells; format: cell-based, human; conditions: for switching ratio: harvested 96 hours after transfection
Method: FIG. 29|Effect of enzyme dosage on the level of background activity, shown as gel images. Different amounts of an iCas-bearing plasmid were transfected together with an EMX1-targeting sgRNA into HEK293 cells. These cells were harvested 96 hours after transfection for the Surveyor cleavage assay. DNA modification was clearly observed when 1 μg of plasmid was utilised, even in the absence of the inducer. […] The switching ratio was improved from 2.83 to 4.16 and 7.96 respectively. […] Arrows indicate the height of the expected cleavage bands.

EMX1 locus [2] = assay: Illumina deep sequencing of INDELs at the EMX1 locus in HEK293 cells; format: cell-based, human; conditions: for time at which leaky activity was first detected: without 4-hydroxytamoxifen (0 nM)
FANCF locus = assay: Surveyor assay, genome modification at the FANCF locus in HEK293 cells; format: cell-based, human; conditions: for cleavage bands with 4HT: 100 nM or 1000 nM 4HT for 24 hours
Method: FIG. 16|Genome modification at the FANCF locus in HEK293 cells, the data represented as images showing the results and the concentration of gene induction. 24 hours after transfection with Cas9 variant 27, 29, or 30, the cells were either harvested immediately (0 hour time point) or were exposed to 0 nM, 100 nM or 1000 nM 4HT for another 24 hours before genomic DNA was isolated and analysed by the Surveyor assay. Arrows indicate the expected cleavage bands. […] Furthermore, the leakiness in editing activity became more pronounced over time, as indicated by the increase in INDEL frequency from 2.5% to 7.7% for variant 27 and from 2.9% to 3.5% for variant 29.
At 24 hours after transfection with a FANCF-targeting plasmid, cells were treated with or without tamoxifen for another 24 hours before genomic DNA was isolated and analysed by the Surveyor assay (FIG. 10).

[3] = tested on: VEGFA promoter, WAS, TAT, and FANCF genes; assay: Surveyor assay at VEGFA, WAS, TAT and FANCF genomic loci in HEK293 cells; format: cell-based, human; conditions: 1 μM 4-HT
From the text: (§1) The editing activity continued to increase with longer treatment durations.

TAT locus = assay: Surveyor assay at the TAT locus in cancer cell lines; format: cell-based, human; conditions: 1 μM 4HT; MCF7, DLD1 and HCT116
Method: FIG. 18|Genome modification at the TAT locus in different cancer cell lines. The efficiency of iCas was tested in the breast cancer cell line MCF7, as well as in the colorectal cancer cell lines DLD1 and HCT116, the results of which are shown as gel images. Based on the Surveyor assays, genome modifications were detected after the cells were treated with 1 μM 4HT for 6 hours. The INDEL frequency increased when the treatment duration was lengthened to 8 hours for all the cell lines tested. Arrows indicate the expected cleavage bands.
as §1

β-catenin = β-catenin transcript (qRT-PCR) and protein (Western blot) levels; format: cell-based, human; conditions: inducer 6 hours, harvested after another 72 hours
Method: Subsequently, they were harvested for analysis after another 72 hours. […] Error bars reflect the standard deviation from at least three biological replicates.
Proteins from whole cell lysates, nuclear fractions, and cytosolic fractions were loaded in equal amounts for SDS PAGE and then transferred onto a nitrocellulose membrane for western blot. The primary antibodies used were α-V5 (Life Technologies, 1:8000 dilution), α-3PGDH (Santa Cruz, 1:1000 dilution), and α-total histone H3 (Abcam, 1:10000 dilution). Primary antibodies were diluted in TBST+5% milk and incubated overnight at 4° C. Secondary antibodies were used at a 1:2500 dilution in TBST+5% milk. Membranes were exposed after addition of WesternBright Sirius HRP substrate (Advansta).

[4] = tested on: EMX1, TAT, and WAS genomic loci; assay: Benchmarking of post-translational control systems by Surveyor assay and deep sequencing; format: cell-based, human
From the text: Arrows indicate the expected cleavage bands.

[5] = tested on: known Cas9 off-target sites of the EMX1, VEGFA, FANCF, WAS, and TAT sgRNAs; assay: Surveyor assay at known Cas9 off-target sites; format: cell-based, human
Method: The specificity of iCas was tested using seven distinct guide RNAs (gRNAs), the results of which are shown in three-dimensional column graphs. […] (n≥2 replicates for each on-target site; n≥3 replicates for each EMX1 off-target site; n≥1 replicate for other off-target sites.)
To assess the DNA cleavage specificity of iCas, the modification of known Cas9 off-target sites of the EMX1, VEGFA, FANCF, WAS, and TAT sgRNAs was measured.

[6] = tested on: EMX1 and ADAR1 genomic loci; assay: Multiplex genome editing, Surveyor assay; format: cell-based, human
Method: Besides single gene targeting, the ability of iCas to perform multiplex genome engineering was compared with that of intein-Cas9 or split-Cas9. HEK293 cells were co-transfected with a sgRNA targeting EMX1 and another sgRNA targeting a coding exon of ADAR1 (ADAR), and subsequently the extent of genome modification was analysed by the Surveyor assay.

HEK293-iCas cells = assay: Immunofluorescence localization of iCas in the stable line; format: cell-based, human
Method: FIG. 6|Toggling the activity of iCas on and off (a,b) Immunofluorescence images (a) and quantification (b) of iCas in HEK293-iCas cells either untreated (N.A.) or treated with 4-HT and then fixed at 0, 48, or 72 h after removal of 4-HT from the culture medium. DAPI, nuclear staining; V5, antibody specific for V5-tagged Cas9. Scale bar, […]. In (b), at least 300 cells were counted for each sample and time point. Data represent mean±s.d. from three biological replicates. n.s., not significant (P>0.25); **P<0.001, Student's t-test. (c) Surveyor assay detection of genome modification in HEK293 cells after two cycles of transfection and 4-HT treatment (4-HT 1 and 4-HT 2). A sgRNA targeting the WAS locus was transfected first, and a sgRNA targeting the ASXL2 locus second. Arrows indicate the expected cleavage bands.
In principle, a conditional system such as iCas should allow users to generate stable cell lines and induce its activity whenever needed. […] The cell line was verified to be functional (FIG. 25a) and monitored the intracellular localization of iCas by immunofluorescence (FIG. 6a). Without 4-hydroxytamoxifen, most cells produced an iCas protein that was localized in the cytoplasm; only 15% of the cells contained nuclear-localized protein. […] The inducer was then washed away and the cells immunostained with anti-V5 antibody at 48 and 72 hours after removal of 4-hydroxytamoxifen.

HEK293 cells = assay: Immunohistochemical staining, nuclear localization of (ERT2)2-Cas9-(ERT2)2; format: cell-based, human; conditions: no 4-HT; 24 hours after transfection
Method: To verify the results from the Surveyor assays and deep sequencing experiments, immunohistochemical staining was performed to determine the subcellular localization of the three variants, all of which contained two copies of ERT2 at both termini of the enzyme ((ERT2)2-Cas9-(ERT2)2), with or without 1 μM 4-HT. 24 hours after transfection with plasmids carrying a Cas9 variant and a sgRNA targeting the EMX1, VEGFA, FANCF, WAS, or TAT genomic locus, the cells were either fixed immediately and stained with anti-V5 or were subjected to 6 h or 24 h 4-HT treatment before fixation and staining (FIG. 15). […] Most of the protein translocation occurred within the first 6 hours of 4-hydroxytamoxifen treatment.
Paraformaldehyde-fixed HEK293 cells were first incubated with blocking solution (10% FBS in 0.1M PBS) (JR Scientific Inc) for 30 minutes and then quenched with 3% hydrogen peroxide. Next, the samples were incubated for 2 hours at room temperature or 4° C. overnight with primary antibody specific against the V5 epitope tag (Life Technologies) in blocking solution. Negative controls were incubated with blocking solution without any primary antibody. Subsequently, the samples were thoroughly washed with PBS and then incubated for 1 hour at room temperature with secondary horseradish peroxidase (HRP)-conjugated antibody (GE Healthcare UK Ltd). […]

Wnt signalling pathway = assay: Wnt-responsive luciferase reporter assay in STF3A-TetOn cells; format: cell-based; conditions: CTNNB1-targeting sgRNA; chemical 6 hours, harvested after another 72 hours
Method: Cells were treated for 6 hours with the respective chemical and then harvested after another 72 hours to allow sufficient time for changes in β-catenin or luciferase protein levels.
The cells were then trypsinised and re-seeded equally into a Corning 96-well flat clear bottom white plate. Samples were assayed for luciferase activity using Dual-Glo Luciferase (Promega) according to manufacturer's instructions. All measurements were taken using the i-control software for Tecan microplate readers. All firefly luciferase measurements were normalized to the corresponding renilla luciferase readings.

CTNNB1 locus = assay: Surveyor assay at the CTNNB1 locus in STF3A-Tet-On cells; format: cell-based
WAS locus and ASXL2 = assay: Toggling of iCas activity, Surveyor assay; format: cell-based, human
Method: Subsequently, the possibility of toggling the activity of iCas was explored (FIG. 25b). After 1 μM 4-hydroxytamoxifen treatment of HEK293 cells co-transfected with iCas and a first sgRNA targeting the WAS locus, the inducer was removed and 72 hours waiting time was allowed to pass, thereby allowing nuclear-localized iCas protein to exit the nucleus before introducing a second sgRNA targeting a coding exon of ASXL2. The cells were then either treated with 4-hydroxytamoxifen a second time or left untreated.

PARP4 gene = assay: Surveyor assay at PARP4 in the HEK293-iCas stable line; format: cell-based, human; conditions: 1 μM 4HT for 24 hours; after at least two weeks of passaging
Method: FIG. 27|Temporal switching of iCas activity. […] To assess the functionality of this cell line, a lentivirus expressing a sgRNA targeting one of the coding exons of the PARP4 gene was generated, and HEK293-iCas cells were infected the virus. After puromycin selection and continuous passaging of the cells for at least two weeks, the cells were treated with or without 1 μM 4HT for 24 hours before harvesting them for analysis using the Surveyor assay. […] When the cells are treated with 4HT, the iCas enzyme is expected to translocate into the nucleus and be able to edit the DNA (these cells are depicted as yellow). However, when the inducer has been removed for more than 72 hours, the iCas protein is expected to translocate out of the nucleus and thus no more editing will be anticipated.

[7] = absence of 4HT, harvested 24 hours after transfection (0 hour time point)

“4-hydroxytamoxifen [4HT, reference compound]” was tested, and the “4HT concentration for maximum activation of the inducible genome editing system” value (EMX1 locus [1]; 10, 100, 1000 nM tested, Surveyor assay and deep sequencing) was “at least 100 nM”.

With “variant 29: NLS-TG-ERT2-GGSPRGGS-ERT2-TPESGA-Cas9-NLS-ERT2-PAG-ERT2 (SEQ ID NO. 248)” the “duration of 4-hydroxytamoxifen treatment at which cleavage activity appears to plateau” value (shortened to “duration … to plateau”) (EMX1 locus [1]; Surveyor assay) was “around 8 hours”, the “duration of 4-hydroxytamoxifen treatment after which a low level of DNA editing was revealed” value (“duration … of DNA editing was revealed” for short) (EMX1 locus [2]) was 2 h and the “time at which leaky activity was first detected” value (EMX1 locus [2]) was 2 h. The INDEL frequency (FANCF locus; 0 nM 4HT for another 24 hours) was 3.5%, the “cleavage bands with 4HT” value (FANCF locus) was “strong cleavage bands were observed” and the INDEL frequency (FANCF locus; [7]) was 2.9%.

“variant 30: NL-TGGGS-ERT2-PRGGS-ERT2-TPESGA-Cas9-NLS-ERT2-PAGGGS-ERT2 (SEQ ID NO. 249); hereafter referred to as iCas” was tested, and the “duration of 4-hydroxytamoxifen treatment until nuclease activity, all loci tested” value [3] was no more than 4 h, the switching ratio (EMX1 locus [1]; 0.25 μg plasmid) was 7.96 and the switching ratio (EMX1 locus [1]; 0.5 μg plasmid) was 4.16. For the same substance, the switching ratio (EMX1 locus [1]; 1 μg of plasmid) was 2.83, the “duration … to plateau” value (EMX1 locus [1]; Surveyor assay) was “around 8 hours” and the “time point at which leaky activity was observed” value (EMX1 locus [1]; without 4-hydroxytamoxifen (0 nM), Surveyor assay) was 48 h. For the same substance, the “duration of 4HT treatment after which genome modifications were detected” value (TAT locus) was 6 h, the “duration … of DNA editing was revealed” value (EMX1 locus [2]) was 2 h and the “time at which leaky activity was first detected” value (EMX1 locus [2]) was 16 h. The “amount of β-catenin protein relative to the original level” value (β-catenin; co-transfected with β-catenin-targeting sgRNA, Western blot) was “less than 20%”, the “transcript level of β-catenin” value (β-catenin; β-catenin-targeting sgRNA, qRT-PCR) was “significant decrease” and the “switching ratio compared with intein-Cas9” value ([4]; Surveyor assay, EMX1 and WAS loci) was “significantly higher ratios than intein-Cas9”. The “induction time needed to reach the INDEL frequency of split-Cas9 after approximately 96 hours” value ([4]; deep sequencing) was 12 h, the “background activity without the inducer” value ([4]; no inducer) was “comparable levels of leakiness” and the “cleavage at the two EMX1 off-target sites” value ([5]; EMX1 sgRNA, 1 μM 4-hydroxytamoxifen up to 24 hours) was “did not yield any measurable cleavage”. For the same substance, the “duration of 4HT treatment after which off-target effects were observed” value ([5]; gRNAs targeting VEGFA promoter first site, TAT locus, FANCF locus) was 16 h, the “editing of two genomic loci simultaneously” value ([6]; 12 hours of chemical treatment) was “generated INDELs at both the EMX1 and ADAR1 genomic loci” and the “editing of two genomic loci simultaneously” value ([6]; 24 hours of chemical treatment) was “produced more genome modification than at 12 hours”. The “cells containing nuclear-localized protein” value (HEK293-iCas cells; 24 hour treatment with 4-hydroxytamoxifen) was 48%, the “cells containing nuclear-localized protein” value (HEK293-iCas cells; 72 hours after removal of 4-hydroxytamoxifen) was “not significantly different from that of the pre-induction state” and the “cells containing nuclear-localized protein” value (HEK293-iCas cells; without 4-hydroxytamoxifen) was 15%. For the same substance, the “nuclear localization in the absence of 4-hydroxytamoxifen, versus variant 27 or variant 29” value (HEK293 cells) was “significantly less nuclear localization”, the luciferase activity (Wnt signalling pathway) was “significant decrease in luciferase activity” and the “duration of inducer treatment until modification of the target locus” value (CTNNB1 locus; 1 μM 4-hydroxytamoxifen or 1 μg/ml doxycycline) was no more than 6 h. For the same substance, the “cleavage bands in the absence of 4-hydroxytamoxifen” value (CTNNB1 locus; any time point) was “No cleavage bands were observed”, the “cleavage after two cycles of transfection, treated twice with the inducer” value (WAS locus and ASXL2; 1 μM 4-hydroxytamoxifen after first and second transfection) was “cleavage activity was readily observed at both targeted loci” and the “cleavage after two cycles of transfection, inducer after the first transfection only” value (WAS locus and ASXL2; 4-hydroxytamoxifen after the first but not the second transfection) was “cleavage was detected only at the WAS locus”. The “cleavage bands with 4HT” value (FANCF locus) was “strong cleavage bands were observed”, the “cleavage band in the absence of 4HT” value (FANCF locus; no 4HT) was “no cleavage band was detected” and the “cleavage bands with or without 4HT in the stable line” value (PARP4 gene) was “Cleavage bands (indicated by arrows) were observed for the treated cells, but not for the untreated cells”.

For “variant 27: NLS-TGGGS-ERT2-PRGGS-ERT2-TPESGA-Cas9-NLS-ERT2-PAG-ERT2 (SEQ ID NO. 246)”, the “duration … to plateau” value (EMX1 locus [1]; Surveyor assay) was “around 8 hours”, the “duration … of DNA editing was revealed” value (EMX1 locus [2]) was 2 h and the “time at which leaky activity was first detected” value (EMX1 locus [2]) was 6 h. For the same substance, the INDEL frequency (FANCF locus; 0 nM 4HT for another 24 hours) was 7.7%, the “cleavage bands with 4HT” value (FANCF locus) was “strong cleavage bands were observed” and the INDEL frequency (FANCF locus; [7]) was 2.5%.
